Source: US20040230057A1, “Dye for optical recording medium” (priority 2003, published 2004)

Experiments:
[1] = UV-visible absorption spectroscopy; format: physicochemical; conditions: for absorption wavelength: UV-visible absorption spectrum; for Maximum Absorption Wavelength: methanol
Source text: (§1) The results of the thermal gravametric analysis and the ultraviolent-visible absorption spectroscopy of the optical recording medium dyes obtained in the above experiment 1 to experiment 8 are summarized in Table 1. The thermal gravametric analysis and the ultraviolent-visible absorption spectroscopy detect, respectively, the thermal breakdown temperature (the temperature of a 5% thermal weight loss) and the optical property (the largest absorption wavelength, absorption coefficient of the solution). […] Further, the thermal breakdown temperatures are above 250 degrees Celsius. Accordingly, the optical recording medium dyes of the present invention comprises a broad wavelength range and has favorable thermal stability and solubility.

[2] = thermal gravimetric analysis; format: physicochemical; conditions: for Thermal Breakdown Temperature: temperature of a 5% thermal weight loss; for temperature of sudden weight loss (thermal breakdown temperature): thermal gravimetric analysis
Source text: as §1

absorption wavelength [1] [nm] | Maximum Absorption Wavelength [1] [nm] | Thermal Breakdown Temperature [2] [°C] | temperature of sudden weight loss (thermal breakdown temperature) [2] | SMILES
561.8 | 561.8 | 280.2 | about 280.2 degrees Celsius | CCCCN1C(=CC=Cc2ccc3ccccc3[n+]2CCCC)C(C)(C)c2cc(Cl)ccc21 [Experiment 1]
583.0 | 583.0 | 268.6 | about 268.6 degrees Celsius | CCCCN1C(=CC=Cc2ccc3ccccc3[n+]2CCCC)C(C)(C)c2c1ccc1ccccc21 [Experiment 2]
583.0 | 583.0 | 274.2 | about 274.2 degrees Celsius | CCCCN1C(=CC=Cc2ccc3ccccc3[n+]2CCCC)C(C)(C)c2c1ccc1ccccc21 [Experiment 3]
548.2 | 548.2 | 309.5 | about 309.5 degrees Celsius | CCCC[n+]1c(C=CC=C2N(C)c3ccc([N+](=O)[O-])cc3C2(C)C)ccc2ccccc21 [Experiment 4]
598.4 | 598.4 | 266.3 | about 266.3 degrees Celsius | CCCCN1C(=CC=Cc2cc[n+](CC)c3ccccc23)C(C)(C)c2cc(Cl)ccc21 [Experiment 5]
570.0 | 570.0 | 302.7 | about 302.7 degrees Celsius | CC[n+]1ccc(C=CC=C2N(C)c3ccc([N+](=O)[O-])cc3C2(C)C)c2ccccc21 [Experiment 6]
625 | 625.0 | 270.7 | about 270.7 degrees Celsius | CCCCN1C(=CC=Cc2cc[n+](CC)c3ccccc23)C(C)(C)c2c1ccc1ccccc21 [Experiment 7]
